Measured values from patent US9980943B2, “Methods of treating muscular dystrophy” (BOARD OF REGENTS OF THE NEVADA SYSTEM OF HIGHER EDUCATION, …, priority 2013, dated 2018).

Legend:
Format in all cases: cell-based, mouse
[1] = tested on: α7 integrin (LacZ reporter in α7βgal+/− myoblasts); experiment: Myoblast α7+/LacZ integrin FDG assay (Burkin assay in myoblasts, 96-well); conditions: α7+/LacZ myoblasts, 96-well
[2] = tested on: α7 integrin (LacZ reporter in α7+/LacZ myotubes); experiment: Myotube α7 integrin FDG assay (Burkin assay in myotubes, 96-well); conditions: myotubes
[3] = tested on: β-galactosidase in CMV-LacZ C2C12 myoblasts; experiment: CMV-LacZ secondary screen in C2C12 myoblasts (β-Gal stabilizing assay); conditions: CMV-LacZ C2C12 myoblasts
Procedure, shortened: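 Stable CMV-LacZ C2C12 clone; six-point curve 0.5–40 μM; duplicates.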

[4] = tested on: β-galactosidase in CMV-LacZ C2C12 myotubes; experiment: CMV-LacZ secondary screen in C2C12 myotubes (β-Gal stabilizing assay); conditions: C2C12 CMV-LacZ myotubes, fold relative to DMSO
Procedure, shortened: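 β-gal stabilization was measured in C2C12 myoblasts or myotubes stably transfected with a CMV-driven LacZ construct, using the FDG β-gal assay. Compounds were tested in dose-response at 0.5, 1, 5, 10, 20 and 40 μM, with two replicates per point.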

Structure (SMILES)	Burkin Assay in Myoblasts, signal relative to DMSO ([1]; 0.5 uM)	Burkin Assay in Myoblasts, signal relative to DMSO ([1]; 1 uM)	Burkin Assay in Myoblasts, signal relative to DMSO ([1]; 5 uM)	Burkin Assay in Myoblasts, signal relative to DMSO ([1]; 10 uM)	Burkin Assay in Myoblasts, signal relative to DMSO ([1]; 20 uM)	Burkin Assay in Myoblasts, signal relative to DMSO ([1]; 40 uM)	Burkin Assay in Myotubes, α7 integrin LacZ reporter signal relative to DMSO ([2]; 0.5 uM)	Burkin Assay in Myotubes, α7 integrin LacZ reporter signal relative to DMSO ([2]; 1 uM)	Burkin Assay in Myotubes, α7 integrin LacZ reporter signal relative to DMSO ([2]; 5 uM)	Burkin Assay in Myotubes, α7 integrin LacZ reporter signal relative to DMSO ([2]; 10 uM)	Burkin Assay in Myotubes, α7 integrin LacZ reporter signal relative to DMSO ([2]; 20 uM)	Burkin Assay in Myotubes, α7 integrin LacZ reporter signal relative to DMSO ([2]; 40 uM)	CMV-LACZ in Myoblasts (β-galactosidase activity relative to DMSO) ([3]; 0.5 uM)	CMV-LACZ in Myoblasts (β-galactosidase activity relative to DMSO) ([3]; 1 uM)	CMV-LACZ in Myoblasts (β-galactosidase activity relative to DMSO) ([3]; 5 uM)	CMV-LACZ in Myoblasts (β-galactosidase activity relative to DMSO) ([3]; 10 uM)	CMV-LACZ in Myoblasts (β-galactosidase activity relative to DMSO) ([3]; 20 uM)	CMV-LACZ in Myoblasts (β-galactosidase activity relative to DMSO) ([3]; 40 uM)	CMV-LACZ in Myotubes, signal relative to DMSO ([4]; 0.5 uM)	CMV-LACZ in Myotubes, signal relative to DMSO ([4]; 1 uM)	other results
O=C(N/N=C/c1c[nH]c2ccccc12)c1cc(Cl)ccc1O [MLS001196572-01]	0.8826	0.7626	1.224	0.9483	0.9362	0.9345	0.9236	0.8882	1.148	0.9294	0.9805	0.7181	1.0105	1.3172	1.0605	0.9456	1.0767	1.0778	0.9632	0.9379	CMV-LACZ in Myotubes, signal relative to DMSO ([4]; 5 uM): 0.9853; CMV-LACZ in Myotubes, signal relative to DMSO ([4]; 10 uM): 1.0223; CMV-LACZ in Myotubes, signal relative to DMSO ([4]; 20 uM): 1.1456; CMV-LACZ in Myotubes, signal relative to DMSO ([4]; 40 uM): 1.1422
CCOn1c(=O)c(-c2ccccc2)[n+]([O-])c2ccccc21 [MLS001197220-01]	1.2811	1.286	1.843	0.9218	1.111	1.0836	1.327	1.3061	1.254	1.004	0.9	0.831	1.2028	1.1569	0.9355	1.1383	0.9567	1.2844	0.8896	0.9356	CMV-LACZ in Myotubes, signal relative to DMSO ([4]; 5 uM): 0.9682; CMV-LACZ in Myotubes, signal relative to DMSO ([4]; 10 uM): 0.9289; CMV-LACZ in Myotubes, signal relative to DMSO ([4]; 20 uM): 0.9659; CMV-LACZ in Myotubes, signal relative to DMSO ([4]; 40 uM): 1.0271
Cc1ccccc1NC(=O)NCCCN1CCN(C)CC1 [MLS001197665-01]	1.062	1.069	1.015	0.9523	1.094	1.189	1.115	1.068	0.973	0.999	1.001	0.9583	0.8584	0.8347	0.9214	0.8403	0.9556	1.0267	0.9415	0.8756	CMV-LACZ in Myotubes, signal relative to DMSO ([4]; 5 uM): 0.9771; CMV-LACZ in Myotubes, signal relative to DMSO ([4]; 10 uM): 1.2593; CMV-LACZ in Myotubes, signal relative to DMSO ([4]; 20 uM): 1.0047; CMV-LACZ in Myotubes, signal relative to DMSO ([4]; 40 uM): 1.0741
